Consider 1 compound from patent US10564167B2, “Method for detecting cells” (FUNDACIÓ INSTITUT DE CIÈNCIES FOTÒNIQUES, priority 2014, dated 2020).

What all share (assay type): cell-based
Assay [1] deals with human fibroblast nuclei (hFb). As to the kind of experiment: STORM super-resolution imaging of H2B nanodomains / nucleosome clutches in TSA-treated human fibroblasts. On the procedure:
(§1) Human fibroblasts (hFb) (BJ, Skin Fibroblast, American Type Culture Collection, ATCC® CRL-2522™) were cultured in DMEM supplemented with 10% FBS, 1× Non-essential AA, 1× GlutaMax and 1× penicillin/streptomycin. Human fibroblasts were treated with 300 nM of TSA (TricostatinA, Sigma-Aldrich) solution (TSA-hFbs) in complete growth medium for 24 hours before imaging experiments. Human fibroblasts expressing the Histone H2B-SNAP fusion protein were obtained after drug selection of nucleofected cells with the pSNAP-H2B Plasmid (N91795, New England BioLabs) using the Amaxa Human Dermal Fibroblast Nucleofector Kit (Lonza, VPD-1001).
For the imaging experiments, cells were plated on 8-well Lab-tek 1 coverglass chamber (Nunc) at a seeding density of 20,000-50,000 cells per well, fixed and permeabilized with Methanol-Ethanol (1:1) solution at −20° C. for 6 min or fixed with PFA 4% in PBS for 10 min and then permeabilized with 0.1% v/v Triton X-100 (SIGMA) in PBS for 10 min at room temperature. As the distribution of H2B was independent of the fixation and permeabilization protocols, Methanol-Ethanol (1:1) was preferred to minimize the handling of the sample. […]
For all H2B quantification experiments, primary rabbit polyclonal anti-H2B (ab1790) and the secondary donkey anti-rabbit labeled with Alexa Fluor 405-Alexa Fluor 647 (Invitrogen) pair dyes were used after in vitro characterization using mononucleosome, 12- and 24-nucleosome array labeling.
(§2) STORM imaging was carried out with a commercial STORM microscope system from Nikon Instruments (NSTORM). Laser light at 647 nm was used for exciting Alexa Fluor 647 (Invitrogen) and switching it to the dark state, and laser light at 405 nm was used for reactivating the Alexa Fluor 647 (Invitrogen) fluorescence via an activator dye (Alexa Fluor 405)—facilitated manner. […]

Assay [2] has as its system H3 acetylation in human fibroblast cells. Kind of assay: STORM imaging of H3 acetylation in human fibroblasts before and after TSA. Particulars: hFbs, 300 nM TSA 24 hours, STORM images. On the procedure: as §1
(§3) For the imaging experiments, cells were plated on 8-well Lab-tek 1 coverglass chamber (Nunc) at a seeding density of 20,000-50,000 cells per well, fixed and permeabilized with Methanol-Ethanol (1:1) solution at −20° C. for 6 min or fixed with PFA 4% in PBS for 10 min and then permeabilized with 0.1% v/v Triton X-100 (SIGMA) in PBS for 10 min at room temperature. […]
as §2

Assay [3] has as its system human fibroblast nuclei (hFb). As to the kind of experiment: Multi-color STORM imaging of H2B and H1 co-localization in hFbs and TSA-hFbs. The settings on record: TSA-hFbs (hFbs 61±11%, p=0.028). On the procedure: as §1, §3, §2

In the case of `CC(/C=C/C(=O)NO)=C\[C@@H](C)C(=O)c1ccc(N(C)C)cc1` [TSA, Trichostatin A], the “distributions of number of localizations per nanodomain, nanodomain areas and nanodomain nnds vs hFbs” value in assay [1] (TSA-hFbs compared to hFbs, p<10^-3) is on record as “shifted to lower values”. The “H2B nanodomain density in the nuclear periphery compared to the nuclear interior (enhancement)” value in assay [1] (TSA-hFbs, 300 nM TSA 24 hours (untreated hFbs ~25% higher)) is on record as around 10%. Moreover, the “median number of nucleosomes per clutch” value in assay [1] (hFbs treated with 300 nM TSA for 24 hours, converted from H2B localizations by in vitro calibration curve (untreated hFbs ~8)) is on record as around 2 nucleosomes. Besides, the “H3 acetylation after TSA treatment” value in assay [2] is reported as “large increase in H3 acetylation”. Further, the “percentage of H2B co-localized with H1” value in assay [3] stood at 42±6%.
